According to patent US9593146B2, “CD44v6-derived peptides for treating metastasizing cancer” (AMCURE GMBH, priority 2012, dated 2017):

Assays:
HT29 cells = assay: HGF induced scattering of HT29 cells; type: cell-based, human; conditions: for HGF induced clustering / scattering of HT29 cells (FIG. 11): HGF 10 ng/ml, peptide pre-incubation (Example 2)
Procedure: FIG. 17: The human CD44 v6 specific peptides block HGF induced cell scattering and invasion into matrigel. Scattering of HT29 cells was determined in 24-well plates. First, 4.5×10^4 cells were seeded at 37° C.; after 24 h the cells were serum starved for additional 24 h. the cells were either left untreated (control) or later treated with HGF (50 ng/ml) for 24 h. Where indicated the cells were treated with the v6 specific peptide (human v6 5mer, 10mer, 14mer) or control peptide prior to induction with HGF for 30 min. Pictures were made using phase contrast microscopy. Magnification 40×.
A scatter assay was performed additionally. HT29 colon cancer cells were grown in medium containing 10% FCS. One day after seeding, the cells were starved. On the third day, the cells were induced with HGF (10 ng/ml) and pre-incubated with either no peptide, ctrl-peptides (SEQ ID No.: 15), non-pegylated v6-peptides (SEQ ID No.: 11) or the pegylated peptides, namely PEG-rat control peptide and PEG-rat CD44v6 peptide.
Scattering of HT29 cells was determined in 24-well plates. First, 4×10^5 cells were seeded at 37° C.; the cells were either left untreated or 48 h later treated with HGF (50 ng/ml) for 24 h or with PEGylated or non-PEGylated peptides (100 ng/ml) prior to HGF induction for 30 min.

Met and ERK [1] = assay: HGF induced activation of Met and Erk in BSp73ASs6 cells (Western blot); type: cell-based, rat
Procedure: (§1) Serum-starved cells (24 hours) were induced with the growth factor HGF (10 ng/mL) at 37° C. for 5 minutes. Where indicated, the cells were treated with peptides (100 ng/ml) prior to induction at 37° C. for 10 minutes (100 ng/mL CD44v6 peptide or control peptide). Following the induction with HGF, cells were washed with ice-cold phosphate-buffered saline (PBS). To detect activated Met and Erk, cells were lysed in sodium dodecyl sulfate (SDS)-sample buffer containing 100 mM dithiothreitol (DTT), boiled and subjected to western blot analysis using antibodies against phospho-Met and ERK. The loading controls were performed on the same blot after stripping (62.5 mM Tris, pH 6.8, 2% SDS, 0.8% DTT) by probing with the Met respectively ERK antibody. Blots were stained using the enhanced chemiluminescence system (Thermo Fisher Scientific, Schwerte, Germany). Bands in western blot analysis were quantified with the program Image J (National Institutes of Health).
Rat pancreatic cancer cells BSp73ASs6 (also designated Ass6) were incubated for 10 min at 37° C. with either ctrl-peptides (SEQ ID No.: 15), non-pegylated v6-peptides (SEQ ID No.: 11) and increasing concentrations of the pegylated peptides, namely PEG-rat control peptide and PEG-rat CD44v6 peptide, before induction with HGF (10 ng/ml; 5 min at 37° C.).
Activation of ERK and Met was determined by standard SDS and Western Blotting techniques using a phospho-Met and phospho-Erk specific antibody (phospho-Met clone D16 cell signaling, phospho-Erk p42/44 cell signaling)
ASs6 cells, serum starved for 24 h, were induced with HGF (10 ng/ml) at 37° C. for 5 min. Where indicated, the cells were treated with PEGylated or non-PEGylated peptides before induction at 37° C. for 10 min (150 nM). Cells were washed with phosphate-buffered saline (PBS) and lysed in boiling sodium dodecyl sulfate (SDS)-sample buffer containing 100 mM dithiothreitol (DTT). Subsequently, lysates were subjected to Western blot analysis using antibodies against phosphorylated Mek and Erk (Cell signaling). The Mek and Erk loading control were performed on the same blot, stripped (62.5 mM Tris pH 6.8, 2% SDS, 0.8% DTT) and probed with the Mek and Erk antibodies. Blots were stained using the enhanced chemiluminescence system (Thermo Fisher Scientific).

Met and ERK [2] = assay: HGF induced activation of Met and ERK in L3.6pl cells (Western blot); type: cell-based, human; conditions: L3.6pl cells, peptide prior to induction with 10 ng/ml HGF
Procedure: as §1

L3.6pl cells = assay: Human orthotopic model of pancreatic cancer, L3.6pl cells in nude mice; type: in vivo
Procedure: In the case of the human orthotopic model, L3.6pl pancreatic carcinoma cells (passage 24-26) were suspended in Hank's balanced salt solution (Invitrogen, Karlsruhe, Germany) after trypsinization. The cells were injected orthotopically in the pancreas of male nude mice as described (Bruns C J et al. (1999) Neoplasia 1(1):50-62). Two groups of 15 mice each were injected i.p. 7 days later with either the human v6 peptide respectively rat control peptide (20 μg). For all experiments described and depicted herein either the rat 14mer control peptide or the human 14mer peptide were used. All experiments were then repeated with the rat 5mer control peptide or the human 5mer peptide (N-R-W-H-E, SEQ ID NO: 2). […] The injection was repeated three times per week for 21 days. Two days after the last treatment the animals were killed. […]
A comparison of different CD44v6 peptide derivatives was performed in animals bearing a orthotopic L3.6pl tumor. 10 groups of 5 animals each received a dose of 20 μg peptide per injection three times per week for 3 weeks with the compounds listed in Table 4. Three weeks after starting the treatment the animals were sacrificed and analyzed for macroscopic metastases and tumor volume.

BSp73ASs6 cells [3] = assay: Rat syngeneic model, subcutaneous BSp73ASs6 tumor, metastasis formation; type: in vivo; conditions: for metastasis (axillary lymph nodes, lungs): 200 μg per injection, intra-tumoral or intravenously three times a week, start after one week of tumor growth; for outgrowth of primary tumors / metastasis and micro-metastasis in lung sections (PAS and H&E staining): same treatment; for outgrowth of primary tumors: 28 days; for metastasis and micro-metastasis in lung sections (PAS and H&E staining): histological analysis
Procedure: In the case of the rat syngeneic model, 1×10^6 pancreatic cells (BSp73AS and its transfectants) were subcutaneously injected into the right posterior flank of the animals. Tumors developed for four weeks. During this time period animals injected with BSp73ASs6 cells expressing Met-shRNA or control-shRNA received doxycycline in the drinking water. At the end of the experiment, primary tumors were isolated. Lungs and axillary lymph nodes were analyzed. The tissues were incubated for 24 h in a zinc-fixative (0.5 g calcium acetate, 5.0 g zinc acetate, 5.0 g zinc chloride, in 1 L 0.1 M Tris pH 7.4) and embedded in paraffin for further analysis. In case of peptide or antibody treatment tumors developed for one week before the first treatment. Where indicated, animals received 200 μg of peptide or antibody per injection three times per week for four weeks. Tumor growth was monitored weekly using a caliper. Animals were killed at day 28 or 30 after start of the treatment.
For histo-morphological analysis paraffin-embedded sections of lungs were stained with hematoxylin and eosin and periodic acid-Schiff (H&E or PAS). Serial sections of the whole tissue blocks were examined by analyzing slices every 20 μm; in each slice, the presence and the extension of the metastatic deposit was assessed, according to the procedure routinely used by pathologists to evaluate the presence of micro-metastases.

BSp73ASs6 cells [4] = assay: Apoptosis in established lung metastases (cleaved Caspase-3, cleaved Caspase-8), BSp73ASs6 rat model; type: in vivo; conditions: injection every second day
Procedure: 7 μm thick paraffin sections were deparaffinized and rehydrated. For P-Met staining antigen unmasking was achieved by boiling the slides in 1 mM EDTA pH 8.0 followed by incubation for 15 minutes at a sub-boiling temperature, for CD31 staining the sections were treated with Proteinase K (8 μg/ml) for 10 min at 37° C. For immunofluorescence staining of P-Met, unspecific binding was blocked with 5% goat serum (DAKO, Glostrup, Denmark) (diluted in 1×PBS/0.3% Triton X-100) for 60 minutes. In the case of immunohistochemistry, endogenous peroxidases were at first blocked with 3% H2O2 in PBS followed by incubation with biotin blocking system (Dako, Glostrup, Denmark) and then unspecific binding was inhibited by incubation with 5% FCS in PBS. The sections were incubated with the P-Met antibody (D26, dilution 1:50 in 1×PBS/1% BSA/0.3% Triton X-100), Met antibody (C-28, dilution 1:50), GFP antibody (sc-101525, dilution 1:50) or CD31 antibody (5 μg/ml) over night or VFF18 (5 μg/ml) o/n at 4° C. After washing in PBS the sections were incubated with Alexa Fluor R 546 goat anti-rabbit (in case of immunofluorescence P-Met and Met staining, dilution 1:500) or a biotinylated secondary antibody (for immunohistochemical stainings rabbit anti-rat antibody for VFF18 and CD31, goat anti-rabbit for P-Met, cleaved Caspase-3 and cleaved Caspase-8 and rabbit anti-mouse for GFP, dilution 1:500) for 45 minutes. For DAB (3,3′-diaminobenzidine) staining the sections were treated with a streptavidin-peroxidase conjugate (Dako, Glostrup, Denmark) and developed with DAB substrate system (3,3′-diaminobenzidine; Biozol, Eching, Germany). For immunofluorescence DAPI was used for nuclear staining.
One hypothesis for the disappearance of metastases is that the peptides induce apoptosis of CD44v6-expressing metastatic cells in the secondary organs. In order to test this hypothesis, the experiment described above using the BSp73ASs6 cells was repeated. The cells were injected subcutaneously in syngeneic rats and the tumor was allowed to develop for three weeks. After that time the animals were separated in two groups of 10 animals that were injected either with the specific rat CD44v6 peptide or with the control peptide (mouse) every second day. One day following each injection of the peptide, the lungs of one animal were removed and apoptosis was measured using an antibody that detects the cleaved form of Caspase 3. […] Twelve days after injection of the CD44v6 peptide, less apoptosis was observed. […] From these experiments, it is concluded that the CD44v6 peptide induces apoptosis of metastatic cells.

4T1 cells = assay: Syngeneic orthotopic 4T1 mammary carcinoma model in BALB/c mice; type: in vivo; conditions: 20 μg i.p. 3 times per week for two weeks
Procedure: FIG. 26: Treatment with the v6 14mer reduces growth of the primary tumor and macroscopic metastases formation in the lung. 1×10^6 murine 4T1 cells per mouse were diluted in 50 μl RPMI plus 50 μl Matrigel and injected into the 6th mammary fat pad of 10 female BALB/c mice. One week after the injection, the mice were either injected intraperitoneally with 20 μg of the murine v6 14mer dissolved in 100 μl PBS or with 20 μg of control peptide (rat v6 14mer) dissolved in 100 μl PBS. The injection was performed 3 times per week for two weeks. After 2 weeks the mice were sacrificed and the primary tumors and the lungs were extracted. A: Overall reduction of the tumor volume in the v6 peptide treated group. B: Immunofluorescent staining for the endothelial marker CD34 to monitor vascularization of the primary tumor. Graphic representation of the reduction of the total vessel area. C: The v6 peptides led to a reduction in macroscopic lung metastasis. The black arrows mark examples for metastases. The scale bar corresponds to a size of 1 cm. Statistical evaluation of the average number of lung metastases. Significance was calculated using Student's t test: p*<0.01; **p<0.005. Each group consisted of 5 animals.
The effect of the CD44v6 14mer was tested in a syngeneic mouse model by orthotopic injection of the murine mammary carcinoma cells 4T1. 4T1 cells were originally derived from a spontaneously arising BALB/c mammary tumor. When introduced orthotopically, 4T1 cells grow rapidly at the primary site and form metastases in the lung and the lymph nodes within a period of 3-6 weeks. The tumor growth and metastatic spreading of 4T1 cells in BALB/c mice very closely mimics human breast cancer stage IV.
The 4T1 cells were injected orthotopically into the 6th mammary fat pad. Two groups of 5 animals each with the implanted tumor cells were then used for the experiment. One group was treated with the v6 14mer peptide, one with a control (rat) peptide. The injection of the peptide was performed 3 times per week and planned for three to four weeks but had to be stopped after two weeks as the control group suffered from large tumors.

[5] = 20 μg i.p. three times per week for three weeks, start 7 days after implantation

Substance | HGF induced clustering / scattering of HT29 cells (FIG. 11) (HT29 cells) | HGF induced scattering of HT29 cells (HT29 cells; PEGylated peptides 100 ng/ml prior to HGF 50 ng/ml (Example 5, FIG. 11)) | HGF induced Met-phosphorylation and Erk signaling (Met and ERK [1]; ASs6 cells, peptides with 2000 dalton PEG-chain, 150 nM 10 min before HGF 10 ng/ml (FIG. 10)) | Inhibition of ERK, pegylated vs. non-pegylated peptides (Met and ERK [1]; BSp73ASs6 cells) | HGF dependent activation of Met and ERK (Met and ERK [1]; pegylated rat 5mer, 10 min pre-incubation, HGF 10 ng/ml 5 min (FIGS. 9, 10)) | Phosphorylation of Met and ERK (Met and ERK [2]) | all experiments of the human orthotopic model repeated with 5mer peptides (L3.6pl cells; 20 μg i.p. three times per week for 21 days) | metastasis (axillary lymph nodes, lungs) (BSp73ASs6 cells [3]) | outgrowth of primary tumors (BSp73ASs6 cells [3]) | metastasis and micro-metastasis in lung sections (PAS and H&E staining) (BSp73ASs6 cells [3]) | lung metastasis at day twenty-two (BSp73ASs6 cells [4]) | time of maximum of apoptosis (BSp73ASs6 cells [4]) | first detection of apoptotic cells (cleaved Caspase 3) in tumor areas of the lungs (BSp73ASs6 cells [4]; start three weeks after tumor cell injection) | metastasis formation (liver) (L3.6pl cells; [5]) | outgrowth of the primary tumor in the pancreas (L3.6pl cells; [5]) | average number of metastases (4T1 cells; 5 animals) [metastases per lung] | macroscopic lung metastases per animal (4T1 cells; 5 animals per group)
PEG-NEWQG [PEG-rat CD44v6 peptide, rat CD44v6 5mer pegylated at the N-terminal] | lead to dissociation and migration of cells away from these cell cluster | strongly inhibited | HGF completely failed to induce Met-phosphorylation and to activate Erk signaling | even more efficient | efficient in inhibiting HGF dependent activation of Met and ERK |  |  |  |  |  |  |  |  |  |  |  | 
NEWQG [rat 5mer, rat CD44v6 5mer peptide] | lead to dissociation and migration of cells away from these cell cluster |  |  |  |  | had no influence on receptor activation and signal transduction | The same results as for the 14mer peptides were observed | completely inhibited metastasis | not influenced by either treatment | neither metastasis nor micro-metastasis could be detected |  |  |  |  |  |  | 
KEKWFENEWQGKNP [rat 14mer, rat CD44v6 14mer; control peptide in human and mouse models] |  |  |  |  |  | had no influence on receptor activation and signal transduction |  | completely inhibited metastasis | not influenced by either treatment | neither metastasis nor micro-metastasis could be detected | no metastasis could be detected anymore | eight days after the first injection | as early as three days after the first injection | neither any influence on metastasis formation | nor on growth of the primary tumor | 6 | all mice treated with the control peptide developed metastases
